According to PMC5538713, “RORγt and RORα signature genes in human Th17 cells” (PLoS ONE, 2017):
Where two headings read alike, the source gives them in different places.

Legend:
5HT7 (h) = target: T1, 5HT7 (h) (Homo sapiens, UniProt P34969); assay: Cerep selectivity panel; format: binding; settings: for inhibition at 10 µM: read-out: % Inhibition at 10µM
T1 construct: purchased Cerep
Method in brief: (§1)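 Off-target profiling within a commercial panel of 50 receptors, ion channels and transporters; each compound was tested at 1 µM and 10 µM.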

A1 (h) = target: T2, A1 (h) (Homo sapiens, UniProt P30542); assay: Cerep selectivity panel; format: binding; settings: for inhibition at 1 µM: read-out: % Inhibition at 1µM; for inhibition at 10 µM: read-out: % Inhibition at 10µM
T2 construct: purchased Cerep
T2 sequence (P30542 1-326): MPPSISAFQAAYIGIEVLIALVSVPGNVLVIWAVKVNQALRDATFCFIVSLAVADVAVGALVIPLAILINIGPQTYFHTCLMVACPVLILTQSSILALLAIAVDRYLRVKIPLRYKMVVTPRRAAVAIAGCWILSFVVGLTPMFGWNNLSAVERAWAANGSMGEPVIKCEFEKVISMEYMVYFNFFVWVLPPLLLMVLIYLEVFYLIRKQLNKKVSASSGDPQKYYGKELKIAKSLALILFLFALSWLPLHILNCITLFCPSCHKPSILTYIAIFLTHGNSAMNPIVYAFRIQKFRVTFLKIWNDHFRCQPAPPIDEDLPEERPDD
Method in brief: as §1

CCR1 (h) = target: T3, CCR1 (h) (Homo sapiens, UniProt P32246); assay: Cerep selectivity panel; format: binding
T3 construct: purchased Cerep
Method in brief: as §1

M1 (h) = target: T4, M1 (h) (Homo sapiens, UniProt P11229); assay: Cerep selectivity panel; format: binding
T4 construct: purchased Cerep
T4 sequence (P11229 1-460): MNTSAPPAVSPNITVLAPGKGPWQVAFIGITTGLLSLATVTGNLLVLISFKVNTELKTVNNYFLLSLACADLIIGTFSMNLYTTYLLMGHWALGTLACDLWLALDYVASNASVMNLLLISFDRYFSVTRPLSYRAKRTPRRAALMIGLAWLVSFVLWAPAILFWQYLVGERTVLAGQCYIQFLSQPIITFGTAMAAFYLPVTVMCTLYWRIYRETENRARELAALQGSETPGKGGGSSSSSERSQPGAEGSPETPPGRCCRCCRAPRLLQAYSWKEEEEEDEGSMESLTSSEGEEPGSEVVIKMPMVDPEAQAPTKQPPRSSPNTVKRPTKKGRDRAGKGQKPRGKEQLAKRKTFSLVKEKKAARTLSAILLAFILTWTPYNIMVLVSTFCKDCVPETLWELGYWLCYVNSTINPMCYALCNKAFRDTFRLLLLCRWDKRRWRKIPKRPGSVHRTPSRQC
Method in brief: as §1

M2 (h) = target: T5, M2 (h) (Homo sapiens, UniProt P08172); assay: Cerep selectivity panel; format: binding
T5 construct: purchased Cerep
T5 sequence (P08172 1-466): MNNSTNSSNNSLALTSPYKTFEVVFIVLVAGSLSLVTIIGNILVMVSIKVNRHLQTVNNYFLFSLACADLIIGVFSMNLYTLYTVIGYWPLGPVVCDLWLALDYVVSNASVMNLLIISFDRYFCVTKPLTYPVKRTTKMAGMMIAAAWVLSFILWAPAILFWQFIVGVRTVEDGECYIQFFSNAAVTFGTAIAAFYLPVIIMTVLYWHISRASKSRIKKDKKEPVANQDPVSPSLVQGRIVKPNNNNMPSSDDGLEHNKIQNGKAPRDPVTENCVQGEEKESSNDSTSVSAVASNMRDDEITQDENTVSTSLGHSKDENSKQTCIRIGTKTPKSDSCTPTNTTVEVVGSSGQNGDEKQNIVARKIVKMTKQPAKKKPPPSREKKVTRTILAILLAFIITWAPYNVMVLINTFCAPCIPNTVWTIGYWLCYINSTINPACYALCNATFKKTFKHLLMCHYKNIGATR
Method in brief: as §1

ɣ1 (h) = target: T6, ɣ1 (h) (Homo sapiens, UniProt P25929); assay: Cerep selectivity panel; format: binding; settings: for inhibition at 1 µM: read-out: % Inhibition at 1µM
T6 construct: purchased Cerep
T6 sequence (P25929 1-384): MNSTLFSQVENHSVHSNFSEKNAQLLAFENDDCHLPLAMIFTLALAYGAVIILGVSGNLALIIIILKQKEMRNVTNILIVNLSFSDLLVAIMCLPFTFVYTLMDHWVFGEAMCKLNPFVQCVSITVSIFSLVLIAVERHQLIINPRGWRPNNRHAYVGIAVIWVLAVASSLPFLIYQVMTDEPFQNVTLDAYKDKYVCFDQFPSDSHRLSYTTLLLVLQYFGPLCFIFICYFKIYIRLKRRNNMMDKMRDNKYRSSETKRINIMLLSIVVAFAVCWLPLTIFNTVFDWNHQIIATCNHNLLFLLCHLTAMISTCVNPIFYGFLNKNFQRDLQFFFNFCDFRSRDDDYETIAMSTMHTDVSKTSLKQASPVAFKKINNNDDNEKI
Method in brief: as §1

Ca2+ Channel = assay: Cerep selectivity panel; format: binding
Method in brief: as §1

ETA (h) = target: T7, ETA (h) (Homo sapiens, UniProt P25101); assay: Cerep selectivity panel; format: binding; settings: for inhibition at 10 µM: read-out: % Inhibition at 10µM
T7 construct: purchased Cerep
T7 sequence (P25101 21-427): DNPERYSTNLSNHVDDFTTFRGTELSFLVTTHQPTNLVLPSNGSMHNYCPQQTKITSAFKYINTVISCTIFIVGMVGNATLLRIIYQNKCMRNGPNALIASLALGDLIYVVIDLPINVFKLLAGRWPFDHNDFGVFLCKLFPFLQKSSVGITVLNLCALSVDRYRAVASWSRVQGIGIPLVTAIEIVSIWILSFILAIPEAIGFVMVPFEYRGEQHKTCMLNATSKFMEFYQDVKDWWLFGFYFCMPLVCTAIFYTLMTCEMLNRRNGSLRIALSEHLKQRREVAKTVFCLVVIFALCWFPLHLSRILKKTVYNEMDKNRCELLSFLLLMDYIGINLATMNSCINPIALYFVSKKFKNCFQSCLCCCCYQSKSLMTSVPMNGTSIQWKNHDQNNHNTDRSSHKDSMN
Method in brief: as §1

SST = assay: Cerep selectivity panel; format: binding
Method in brief: as §1

Na+ Channel = assay: Cerep selectivity panel; format: binding
K Channel = assay: Cerep selectivity panel; format: binding
RORγ/γt LBD = target: T8, RORγ/γt LBD (Homo sapiens, UniProt P51449); assay: ThermoFluor binding assay, RORγ/γt LBD; settings: recombinant human LBD; read-out: ThermoFlour Binding Assay (Kd, nM) RORγ/γt
T8 construct: made in house; host or cells: E. coli BL21DE3 GOLD, pET24a
T8 sequence (P51449 258-518): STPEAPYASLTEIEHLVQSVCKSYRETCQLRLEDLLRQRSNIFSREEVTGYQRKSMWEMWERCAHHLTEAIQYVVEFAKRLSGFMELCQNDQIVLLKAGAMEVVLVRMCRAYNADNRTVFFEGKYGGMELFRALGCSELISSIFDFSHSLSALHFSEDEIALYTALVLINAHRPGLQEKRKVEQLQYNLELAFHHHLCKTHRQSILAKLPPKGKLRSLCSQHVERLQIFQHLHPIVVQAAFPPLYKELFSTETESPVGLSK
Protocol: Recombinant human RORγ, RORα and RORβ LBD proteins were prepared for ThermoFlour binding assay. […] All recombinant proteins contained an additional amino acid sequence of [sequence] at the N-terminal of LBD. After transformation of the bacteria strain BL21DE3 GOLD (Agilent) with the plasmids, 10 to 20 L cultures were grown to 1 OD and recombinant protein expression was induced overnight at 16°C with 0.2mM isopropyl-beta-D-thiogalactopyranoside (IPTG) (Corning). […] His-tagged proteins were collected with Ni-NTA resin (Qiagen) and purified with a HiTrap Q HP column (GE Life Sciences) eluted with a 40 CV gradient of 50-500mM NaCl.
The ThermoFluor® assay was established to measure the change in protein stability upon binding with compounds. 1-Anilinonaphthalene-8-Sulfonic Acid (1,8-ANS) (Invitrogen) was used as a fluorescent dye to label the test proteins. […] Assay plates were robotically loaded onto a thermostatically controlled PCR-type thermal block and then heated at a ramp-rate of 1°C/min. Fluorescence emission was initiated by continuous illumination with UV light (LC6, Hamamatsu) via fiber optic with a band-pass filter (380–400 nm) and detected with a CCD camera (Sensys, Roper Scientific) filtered to detect signal of 500 ± 25 nm. […]

T1 sequence (P34969 whole entry): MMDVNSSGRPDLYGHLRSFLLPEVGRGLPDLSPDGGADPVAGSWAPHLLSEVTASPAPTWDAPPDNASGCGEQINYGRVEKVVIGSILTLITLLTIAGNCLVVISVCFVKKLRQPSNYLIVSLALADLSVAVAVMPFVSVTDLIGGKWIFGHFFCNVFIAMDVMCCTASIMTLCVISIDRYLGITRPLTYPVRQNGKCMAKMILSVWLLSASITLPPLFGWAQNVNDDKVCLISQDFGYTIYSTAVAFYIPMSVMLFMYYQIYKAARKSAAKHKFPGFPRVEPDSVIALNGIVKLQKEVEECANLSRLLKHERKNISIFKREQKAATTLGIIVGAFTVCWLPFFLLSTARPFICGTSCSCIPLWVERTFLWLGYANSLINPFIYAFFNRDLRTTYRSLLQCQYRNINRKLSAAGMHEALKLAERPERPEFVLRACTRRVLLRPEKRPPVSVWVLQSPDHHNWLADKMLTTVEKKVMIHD
T3 sequence (P32246 whole entry): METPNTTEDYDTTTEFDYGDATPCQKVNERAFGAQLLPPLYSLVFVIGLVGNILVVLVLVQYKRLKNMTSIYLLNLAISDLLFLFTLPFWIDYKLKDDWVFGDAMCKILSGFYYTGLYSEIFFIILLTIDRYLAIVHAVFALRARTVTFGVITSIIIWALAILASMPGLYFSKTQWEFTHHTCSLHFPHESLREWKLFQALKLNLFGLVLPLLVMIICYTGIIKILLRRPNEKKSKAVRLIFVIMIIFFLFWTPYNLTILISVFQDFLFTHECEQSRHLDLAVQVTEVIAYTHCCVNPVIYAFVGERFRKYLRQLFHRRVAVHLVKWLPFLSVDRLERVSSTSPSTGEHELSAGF

SMILES	inhibition at 1 µM (M1 (h))	inhibition at 10 µM (M1 (h))	inhibition at 1 µM (M2 (h))	inhibition at 10 µM (M2 (h))	% Inhibition at 1µM (Ca2+ Channel)	% Inhibition at 10µM (Ca2+ Channel)	% Inhibition at 10µM (SST)	% Inhibition at 10µM (Na+ Channel)	% Inhibition at 10µM (K Channel)	further results
CN(C)c1nc2ccc(C(O)(c3ccncc3)c3cncn3C)cc2c(Cl)c1-c1ccccc1 (centres unmarked) [compound D]	6%	67%	10%	47%						inhibition at 10 µM (5HT7 (h)): 16%; inhibition at 1 µM (A1 (h)): 18%; inhibition at 10 µM (A1 (h)): 50%; inhibition at 10 µM (CCR1 (h); 10 µM): 6%; inhibition at 1 µM (ɣ1 (h)): 16%
COc1nc2ccc([C@@](O)(c3ccc(C)nc3C)c3cnnn3C)cc2c(Cl)c1Cc1ccc(C(F)(F)F)cc1 [compound A]					2%	32%	6%	45%	9%	inhibition at 1 µM (5HT7 (h); 5HT7 (h), 1 µM): 4%; inhibition at 10 µM (5HT7 (h); 5HT7 (h), 10 µM): 4%; inhibition at 1 µM (A1 (h); A1 (h), 1 µM): 19%; inhibition at 10 µM (A1 (h); A1 (h), 10 µM): 30%; inhibition at 1 µM (ETA (h); ETA (h), 1 µM): 5%; inhibition at 10 µM (ETA (h); ETA (h), 10 µM): 4%; inhibition at 1 µM (ɣ1 (h); ɣ1 (h), 1 µM): 5%; inhibition at 10 µM (ɣ1 (h); ɣ1 (h), 10 µM): 5%; % Inhibition at 1µM (Na+ Channel; 1 µM): 20%
COc1nc2ccc([C@](O)(c3ccc(Cl)cc3)c3cncn3C)cc2c(Cl)c1Cc1ccc(-n2cccn2)cc1 [B]			16%	23%	3%	21%	1%	3%		
COc1nc2ccc([C@@](O)(c3ccccc3)C3CCN(C(C)=O)CC3)cc2c(Cl)c1Cc1ccc(-n2cccn2)cc1 [C]	12%	21%							17%	Kd (RORγ/γt LBD): 4.4 nM; inhibition at 1 µM (CCR1 (h); 1 µM): 17%; inhibition at 10 µM (ETA (h)): 12%
